Laboratory results reported in article PMC11217338 (Frontiers in Endocrinology, 2024).

Target: T1, rat PXR (rPXR) (Rattus norvegicus, UniProt Q9R1A7)
T1 construct: gene Nr1i2
T1 sequence (Q9R1A7 143-431 limits assumed): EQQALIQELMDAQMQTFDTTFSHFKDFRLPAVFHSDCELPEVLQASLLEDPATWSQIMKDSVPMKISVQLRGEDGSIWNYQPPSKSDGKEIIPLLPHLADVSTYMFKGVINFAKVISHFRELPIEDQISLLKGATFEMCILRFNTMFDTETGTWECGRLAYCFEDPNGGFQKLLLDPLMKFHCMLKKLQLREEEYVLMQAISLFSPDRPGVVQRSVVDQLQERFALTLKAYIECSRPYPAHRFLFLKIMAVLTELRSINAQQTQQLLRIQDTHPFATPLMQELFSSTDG
Assay: GAL4-LBD luciferase reporter assay in HepG2 cells, […] CBD
Assay type: cell-based

For C=C(C)[C@@H]1CCC(C)=C[C@H]1c1c(O)cc(CCCCC)cc1O [CBD, Cannabidiol], the “GAL4-LBD luciferase reporter assay in HepG2 cells, 10 μM CBD” value was “Except for PXRs, CBD had little effect on activation of the other tested nuclear receptors”.
